In PMC6943612, “Investigation of Anti-Inflammatory Potential of N-Arylcinnamamide Derivatives” (Molecules, 2019):
One block for each molecule: values may come before it.

How the values were obtained:
TNF-α = TNF-α secretion by LPS-stimulated PMA-differentiated THP1-Blue™ NF-κB macrophages (ELISA); type: cell-based, Human; conditions: 2 µM, LPS 1 µg/mL, 24 h
Procedure: Differentiated THP1-Blue™ NF-κB macrophages (see the chapter 3.6) were pre-treated for 1 h with 2 µM solutions of the tested compounds 8, 12, 6, 17, cinnamic acid, and prednisone dissolved in DMSO, or only the vehicle [0.1% (v/v) […] solution]. The inflammatory-like response was triggered by adding 1 μg/mL of LPS from E. coli 0111:B4 (Sigma-Aldrich) to the pre-treated macrophages; the control cells were left without LPS treatment. After 24 h, the supernatants were collected and the concentration of TNF-α was measured using a Human TNF-α ELISA Kit (Diaclone, Besançon, France), according to the manufacturer’s manual.
Figure 7 Effect of N-arylcinnamamide derivatives on the secretion of TNF-α. THP1-Blue™ NF-κB cells were differentiated to macrophages by PMA. Such cells were pretreated by compounds or PDS (2 µM) for 1 h, then LPS (1 µg/mL) was added to trigger the inflammatory signalization. Cultivation medium was collected 24 h after LPS stimulation, and the amount of TNF-α was measured by the ELISA technique. Graph represents mean ± SEM. * indicates statistical significance (p < 0.05) to DMSO group; ** indicates statistical significance (p < 0.01) to DMSO group **** indicates statistical significance (p < 0.0001) to DMSO group.

THP1-Blue™ NF-κB cells = assay: Cell viability determination (WST-1), 24 h; type: cell-based; conditions: WST-1, 24 h incubation, serum-free medium, three independent measurements; read-out: IC50 ± SEM, viability of THP1-Blue™ NF-κB cell line
Procedure: The cell viability was determined as was described previously. […] The final concentration of DMSO was 0.1% (v/v) in each well. Measurements were taken after 24 h incubation with the tested substances. Viability was measured by the Cell Proliferation Reagent kit WST-1 (Roche Diagnostics, Basel, Switzerland) according to the manufacturer’s manual. […] The IC50 values were calculated by four-parameter logistic (4PL) analysis from obtained viability curves.

[1] = test system: transcription factor NF-κB; assay: Determination of LPS-induced NF-κB activity (Quanti-Blue, SEAP reporter); type: cell-based; conditions: for inhibition at 2 µM: concentration of compounds 2 µM; for inhibition at 2 µM / inhibition at 0.5 µM: LPS 1 µg/mL, 24 h; for inhibitory effect on NF-κB activity compared with prednisone (in words): 2 µM, same concentration as prednisone; for inhibition at 0.5 µM: concentration of compounds 0.5 µM
Procedure: The activity of NF-κB transcription factors was evaluated on THP1-Blue™ NF-κB cells as described previously. […] After 24 h of incubation, 20 µL of cultivation medium was mixed with 200 µL of Quanti-Blue™ medium (Invivogen) and incubated according to the manufacturer’s instructions at 37 °C for 30–40 min. The activity of NF-κB was determined as secretion of embryonic alkaline phosphatase spectrophotometrically in a Tecan Infinite M200 (Tecan, Männedorf Switzerland) at 650 nm and compared with an untreated control (100%).
Figure 3 Effect of the tested compounds on the activity of transcription factor NF-κB. THP1-Blue™ NF-κB cells were pretreated by compounds (2 µM; or 0.5 µM for 10, 11, and 13) or prednisone (PDS; 2 µM) dissolved in DMSO at indicated concentrations for 1 h. Then, lipopolysaccharide (LPS) 1 µg/mL was added to trigger the NF-κB activation. The activity of NF-κB was measured 24 h after LPS stimulation using QuantiBlue™ assay. Graph represents mean ± SEM. Red dotted line show value of DMSO-only treated group, azur dotted line CA treated group, and blue dotted line PDS treated group. ** indicates statistical significance (p < 0.01) to DMSO group; *** indicates statistical significance (p < 0.001) to DMSO group **** indicates statistical significance (p < 0.0001) to DMSO group.

MAPKs (p38, ERK1/2, JNK) = assay: Signaling pathway analysis (Western blot): phosphorylated MAPKs; type: cell-based; conditions: 2 µM, 30 min after LPS 1 µg/mL
Procedure: (§1) The level of IĸB and the amount of activated (phosphorylated) mitogen-activated protein (MAP) kinase p38, ERK1/2, and JNK was determined on the THP1-Blue™ NF-κB, in a way similar to that described previously. Briefly, cells cultivated in serum-free medium were pretreated with the tested compounds (8, 17, cinnamic acid, or prednisone) at concentration 2 µM. One hour later, 1 µg/mL of LPS was added, and after 30 min the cells were collected into ice-cold Mammalian Cell Lysis Buffer (Abcam, Cambridge, UK) with phosphatase inhibitors PhosSTOP (Roche, Mannheim, Germany). Cell lysates were centrifuged 3000 g/5 min/4 °C and supernatants were mixed with 5× Laemmli reducing buffer [250 mM Tris-HCl pH 6.8, 10% (w/v) SDS, 30% (v/v) glycerol, 5% (v/v) β-mercaptolethanol, 0.04% (w/v) bromphenol blue], and incubated at 95 °C for 5 min. […] The membranes were incubated at 4 °C for 16 h with primary anti-IĸB-α (Cell Signaling; product No. 4814; dilution 1:1,000), anti-p44/42 MAPK (ERK1/2) (Cell Signaling; product No. 9102; dilution 1:1,000), anti-phospho-p44/42 MAPK (ERK1/2) (Cell Signaling; product No. 9101; dilution 1:1,000), anti-JNK1/2/3 (Abcam; product No. ab179461; dilution 1:1,000), anti-phosho-JNK1/2/3 (Abcam; product No. ab76572; dilution 1:5,000), anti-p38 MAPK (Cell Signaling; product No. 8690; dilution 1:1,000), anti-phospho-p38 MAPK (Cell Signaling; product No. 9210; dilution 1:1,000), and anti-β-actin (Santa Cruz, Aachen, Germany; product No. sc-47778; dilution 1:5000) antibodies. […] The amount of bound secondary antibody was determined using WesternSure® PREMIUM Chemiluminescent Substrate (LI-COR, Lincoln, NE, USA). Chemiluminescence was detected using a LI-COR C-DiGit chemiluminescence imaging system (LI-COR).
(§2) Figure 6 Effect of N-arylcinnamamide derivatives on the activation of MAPKs. […] Cells were collected 30 min after LPS stimulation and selected proteins were detected by Western blot and immunodetection.

IκBα = assay: Signaling pathway analysis (Western blot): IκBα level; type: cell-based; conditions: 2 µM, 30 min after LPS 1 µg/mL
Procedure: as §1, §2

[2] = set-up: method as in PMID 30087309; conditions: cited from earlier work
NF-κB p65 = assay: Immunocytochemical analysis of NF-κB nuclear migration; type: cell-based; conditions: 2 µM, 1 h after LPS 1 µg/mL, PMA-differentiated macrophages
Procedure: To differentiate THP1-Blue™ NF-κB monocytes into macrophages, the cells were stimulated with phorbol myristate acetate (PMA) at the final concentration of 50 ng/mL, as was described previously. Cells were seeded into 8-well cell culture glass slide (SPL, Korea) at the concentration of 500,000 cells/mL, 150,000 cells per well. The compound 17 was added at the final concentration of 2 µM, and 1 h later, the cells were activated by LPS (1 µg/mL). After 1h, the culture slide was washed with PBS and fixed with 4% formaldehyde. The cells were permeabilized by 0.1% Triton X-100 (v/v; Merck) and blocked with 3% bovine serum albumin (BSA, Merck) dissolved in PBS. The primary antibody NF-κB p65 (Abcam, Cambridge, UK; product No. ab16502) at concentration 2.5 µg/mL was used for overnight incubation at 4 °C. After that, secondary anti-rabbit antibody labeled with Alexa Fluor® 488 (Cell Signaling; product No. 4412; dilution 1:1000) was added for 1 h in dark, and the nuclei were stained using 0,5 µg/mL DAPI (Merck) for 5 min. The wells were washed three-times between the mentioned steps with PBS. The coverslip was mounted with VectaShield mounting (Vector laboratories, Burlingame, CA, USA) medium and sealed with the nail polish. The nail polish was allowed to dry at 4 °C and the translocation of NF-κB was observed by fluorescence microscopy. […]

Compound: C[C@]12C=CC(=O)C=C1CC[C@@H]1[C@@H]2C(=O)C[C@@]2(C)[C@H]1CC[C@]2(O)C(=O)CO [PDS, prednisone, reference compound]
decrease of the level of TNF-α (TNF-α): 70.3%

Compound: O=C(/C=C/c1ccccc1)Nc1cc(F)ccc1Br [Compound 15, (2E)-N-(2-bromo-5-fluorophenyl)-3-phenylprop-2-enamide]
IC50 (THP1-Blue™ NF-κB cells): > 30 µM | inhibition at 2 µM [1]: 17.8%

Compound: O=C(/C=C/c1ccccc1)Nc1c(Br)cccc1Br [Compound 12, (2E)-N-(2,6-dibromophenyl)-3-phenylprop-2-enamide]
IC50 (THP1-Blue™ NF-κB cells): > 30 µM | inhibitory effect on NF-κB activity compared with prednisone (in words) [1]: comparable with prednisone | inhibition at 2 µM [1]: 23.1% | decrease of the level of TNF-α (TNF-α): 10% | effect on TNF-α production (in words) (TNF-α): decreased

Compound: Cc1cccc(NC(=O)/C=C/c2ccccc2)c1 [Compound 2]
IC50 (THP1-Blue™ NF-κB cells): > 30 µM | inhibition at 2 µM [1]: 9%

Compound: O=C(/C=C/c1ccccc1)Nc1cc(Br)ccc1F [Compound 14]
IC50 (THP1-Blue™ NF-κB cells): > 30 µM | inhibition at 2 µM [1]: 19.7%

Compound: O=C(/C=C/c1ccccc1)Nc1cc(C(F)(F)F)cc(C(F)(F)F)c1 [Compound 13]
IC50 (THP1-Blue™ NF-κB cells): 2.17 ± 1.19 µM | log k [2]: 0.9814 | inhibition at 0.5 µM [1]: 19.7%

Compound: O=C(/C=C/c1ccccc1)Nc1cc(C(F)(F)F)ccc1Cl [Compound 17, (2E)-N-[2-Chloro-5-(trifluoromethyl)phenyl]-3-phenylprop-2-enamide]
IC50 (THP1-Blue™ NF-κB cells): > 30 µM | inhibitory effect on NF-κB activity compared with prednisone (in words) [1]: comparable with prednisone | inhibition at 2 µM [1]: 27.1% | effect on MAPKs activity (MAPKs (p38, ERK1/2, JNK)): no effect | decrease of the level of TNF-α (TNF-α): 12.4% | effect on TNF-α production (in words) (TNF-α): decreased | nuclear translocation of NF-κB after LPS stimulation (NF-κB p65): slightly affected | effect on IκBα levels (IκBα): no effect

Compound: COc1ccc([N+](=O)[O-])cc1NC(=O)/C=C/c1ccccc1 [Compound 18, (2E)-N-(2-methoxy-5-nitrophenyl)-3-phenylprop-2-enamide]
IC50 (THP1-Blue™ NF-κB cells): > 30 µM | inhibition at 2 µM [1]: 17.6%

Compound: O=C(/C=C/c1ccccc1)Nc1ccc(Cl)c(Cl)c1 [Compound 10]
IC50 (THP1-Blue™ NF-κB cells): 6.28 ± 2.32 µM | log k [2]: 0.6821 | inhibition at 0.5 µM [1]: 10.9%

Compound: O=C(/C=C/c1ccccc1)Nc1cc(Cl)cc(Cl)c1 [Compound 11]
IC50 (THP1-Blue™ NF-κB cells): 2.43 ± 1.06 µM | log k [2]: 0.8155 | inhibition at 0.5 µM [1]: 16.2%

Second part, led by results:

IC50 (THP1-Blue™ NF-κB cells): > 30 µM
Compound: O=C(/C=C/c1ccccc1)Nc1c(Cl)cccc1Cl [Compound 9]
inhibition at 2 µM [1]: 14.1%

IC50 (THP1-Blue™ NF-κB cells): > 30 µM
Compound: O=C(/C=C/c1ccccc1)Nc1cc(Cl)ccc1Cl [Compound 8, (2E)-N-(2,5-dichlorophenyl)-3-phenylprop-2-enamide]
inhibitory effect on NF-κB activity compared with prednisone (in words) [1]: comparable with prednisone | inhibition at 2 µM [1]: 22.5% | effect on MAPKs activity (MAPKs (p38, ERK1/2, JNK)): no effect | effect on IκBα levels (IκBα): no effect

IC50 (THP1-Blue™ NF-κB cells): > 30 µM
Compound: O=C(O)/C=C/c1ccccc1 [CA, cinnamic acid, reference compound]
inhibition at 2 µM [1]: 11.4% | effect on MAPKs activity (MAPKs (p38, ERK1/2, JNK)): no effect | effect on TNF-α production (in words) (TNF-α): did not affect | effect on IκBα levels (IκBα): no effect

IC50 (THP1-Blue™ NF-κB cells): > 30 µM
Compound: O=C(/C=C/c1ccccc1)Nc1ccc(Br)cc1Cl [Compound 16, (2E)-N-(4-bromo-2-chlorophenyl)-3-phenylprop-2-enamide]
inhibition at 2 µM [1]: 13.7%

IC50 (THP1-Blue™ NF-κB cells): 11.6 ± 1.13 µM
Compound: O=C(/C=C/c1ccccc1)Nc1cccc(C(F)(F)F)c1 [Compound 6, (2E)-3-Phenyl-N-[3-(trifluoromethyl)phenyl]prop-2-enamide]
log k [2]: 0.4859 | inhibition at 2 µM [1]: 16.7% | decrease of the level of TNF-α (TNF-α): 10.4%

IC50 (THP1-Blue™ NF-κB cells): > 30 µM
Compound: Cc1ccc(NC(=O)/C=C/c2ccccc2)cc1 [Compound 3]
inhibition at 2 µM [1]: 8.5%

IC50 (THP1-Blue™ NF-κB cells): > 30 µM
Compound: Cc1ccc(C)c(NC(=O)/C=C/c2ccccc2)c1 [Compound 7]
inhibition at 2 µM [1]: 14.8%
